The values below come from patent publication US12252524B2, “GIP/GLP1 co-agonist compounds” (Eli Lilly and Company, priority 2018, dated 2025).

Molecules are shown by their SMILES. Like-named read-outs stand apart in the source and are kept apart here. Numbered stars: 1 amine (or outer) side, 2 acyl side, 3 side chain; on linkers, the order of the positions; unused ones are H or OH. Square brackets hold non-standard residues; d marks the D form. Side chains are listed from the residue outwards. Peptide text beside a SMILES is read from it. * marks the point of attachment. C20 diacid = O=C(O)CCCCCCCCCCCCCCCCCCC(=O)*; γGlu = O=C(O)[C@H](CCC(=O)[*:2])N[*:1]; αMeL = CC(C)C[C@](C)(N)C(=O)O; AEEA = NCCOCCOCC(=O)O; Aib = CC(C)(N)C(=O)O

Assay [1] addresses T1, human GLP-1R (Homo sapiens, UniProt P43220). The experiment in a line: GLP-1R HEK293 cell membrane [35S]GTPγS binding assay. Type of assay: biochemical. Also noted: expressed in transfected cells; host or cells: HEK293 cells expressing human GLP-1R; membranes. The method, boiled down: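 Membranes from HEK293 cells expressing the receptor incubated with peptide and […] [35S]GTPγS in HEPES pH 7.4 buffer with NaCl, MgCl2, saponin and BSA, 30 min at room temperature. Gαs-bound label captured by anti-Gαs antibody/SPA beads and counted; EC50 from four-parameter logistic fit.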
A general note: GTPγS is a poorly hydrolysed GTP analogue; its binding reports G protein activation.

A further assay addresses T2, human GIP receptor (Homo sapiens, UniProt P48546).
T2 construct: expressed in transfected cells; crude membranes
T2 sequence (P48546 22-466): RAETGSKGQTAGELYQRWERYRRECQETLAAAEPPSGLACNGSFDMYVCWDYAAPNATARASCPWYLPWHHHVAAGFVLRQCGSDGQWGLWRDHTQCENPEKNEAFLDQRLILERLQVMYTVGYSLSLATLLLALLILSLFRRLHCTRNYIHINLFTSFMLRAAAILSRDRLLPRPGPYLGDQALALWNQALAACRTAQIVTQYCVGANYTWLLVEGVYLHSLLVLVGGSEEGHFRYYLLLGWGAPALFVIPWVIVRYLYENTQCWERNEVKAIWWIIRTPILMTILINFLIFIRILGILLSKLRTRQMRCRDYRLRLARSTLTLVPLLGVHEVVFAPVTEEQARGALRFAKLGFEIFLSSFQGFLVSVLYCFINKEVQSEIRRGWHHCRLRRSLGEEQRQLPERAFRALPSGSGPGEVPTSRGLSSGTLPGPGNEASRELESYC
The experiment in a line: [125I]-GIP binding (SPA), human GIP receptor.

The target of assay [2] is T1, human GLP-1R. Nature of the assay: GLP-1R CHO cell β-arrestin recruitment assay. To be noted: for hGLP1R B-Arrestin2 % Top: normalized to GLP-1 maximum control. Type of assay: cell-based. Set-up: host or cells: CHO-K1 PathHunter cells, assay-ready frozen. The method, boiled down:
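PathHunter CHO-K1 cells with ProLink-tagged human GLP-1R and enzyme-acceptor-tagged β-arrestin-2 treated with serially diluted peptides in assay buffer containing 0.1% hydrolyzed casein, 90 min at 37 °C.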
In general terms: Activated receptors often draw arrestin, which recruitment assays turn into a signal.

Assay [3] concerns the target T3, gastric inhibitory peptide receptor (GIPR) (Homo sapiens, UniProt P48546).
T3 sequence (P48546 22-466): T2 sequence (P48546 22-466)
The experiment in a line: cAMP pharmacological functional assay in presence of casein, hGIPR. In kind it is cell-based.

For a further assay, the target named is T4, human Gcg receptor (Homo sapiens, UniProt P47871).
T4 construct: expressed in transfected cells; crude membranes
The experiment in a line: [125I]-Glucagon binding (SPA), human Gcg receptor. The method, boiled down:
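Cell pellets were lysed in hypotonic Tris buffer, pH 7.5, homogenized, and spun at low then high speed to give crude membranes. Ki was derived from the fitted IC50.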

Assay [4] has as its target T1, human GLP-1R. The experiment in a line: [125I]-GLP-1 binding (SPA), human GLP-1 receptor. Also noted: expressed in transfected cells; crude membranes. The method in brief: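 Crude-membrane binding assay; one membrane prep included 1 mM MgCl2 and 25 units/ml DNAse I during lysis. Assay buffer at pH 7.4 contains 0.1% (w/v) bacitracin and 0.003% (w/v) TWEEN-20. Ki is reported as geometric mean.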

Assay [5] deals with human GLP-1 receptor (GLP-1R) (Homo sapiens, UniProt P43220). The experiment in a line: cAMP pharmacological functional assay in presence of casein, hGLP-1R. In kind it is cell-based.
Setting [6] is: HEK293 cell membranes expressing human GLP-1R, [35S]GTPγS binding, read-out: hGLP1R GTPgS Rel EC50 nM (SEM, n).
Setting [7] is: read-out: hGIPR Ki, nM (SEM, n).
Where [8] appears, read: CHO-K1 cells, PathHunter β-arrestin-2 recruitment, 0.1% casein, read-out: hGLP1R B-Arrestin2 Rel EC50 uM (SEM, n).
[9] abbreviates: HEK293 cells expressing hGIPR, 0.1% Casein, geometric mean, read-out: hGIPR cAMP Rel EC50 nM (SEM, n).
[10] abbreviates: read-out: hGLcgR Ki, nM (SEM, n).
The mark [11] stands for this setting: read-out: hGLP1R Ki, (nM) (SEM, n).
Where [12] appears, read: HEK293 cells expressing hGLP-1R, 0.1% Casein, geometric mean, read-out: hGLP1R cAMP Rel EC50 nM (SEM, n).

T4 sequence (P47871 26-477): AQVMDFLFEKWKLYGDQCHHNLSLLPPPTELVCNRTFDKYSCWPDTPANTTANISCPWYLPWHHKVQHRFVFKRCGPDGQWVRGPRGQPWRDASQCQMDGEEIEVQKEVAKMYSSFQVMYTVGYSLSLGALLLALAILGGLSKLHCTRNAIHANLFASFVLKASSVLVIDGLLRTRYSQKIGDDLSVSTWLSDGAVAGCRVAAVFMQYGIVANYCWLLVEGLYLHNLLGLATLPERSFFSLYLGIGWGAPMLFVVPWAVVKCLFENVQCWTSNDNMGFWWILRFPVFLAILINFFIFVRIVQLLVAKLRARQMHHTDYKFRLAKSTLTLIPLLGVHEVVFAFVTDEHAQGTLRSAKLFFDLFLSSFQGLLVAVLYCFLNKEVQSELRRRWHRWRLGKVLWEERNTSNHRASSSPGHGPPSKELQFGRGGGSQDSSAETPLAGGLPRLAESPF
Chain of human GLP-1 receptor (GLP-1R) (P43220 24-463): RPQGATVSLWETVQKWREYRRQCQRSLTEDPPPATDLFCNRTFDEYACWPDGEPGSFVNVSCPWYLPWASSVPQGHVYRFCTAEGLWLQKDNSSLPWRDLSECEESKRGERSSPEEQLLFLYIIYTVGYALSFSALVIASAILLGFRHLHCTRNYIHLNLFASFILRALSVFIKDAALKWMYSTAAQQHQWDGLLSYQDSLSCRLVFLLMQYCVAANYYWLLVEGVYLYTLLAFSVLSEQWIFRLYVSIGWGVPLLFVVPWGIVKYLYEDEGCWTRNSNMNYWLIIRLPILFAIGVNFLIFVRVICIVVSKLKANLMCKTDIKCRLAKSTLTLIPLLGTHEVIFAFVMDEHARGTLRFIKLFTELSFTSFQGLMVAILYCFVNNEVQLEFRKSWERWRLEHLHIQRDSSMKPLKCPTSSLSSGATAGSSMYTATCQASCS
T1 sequence (P43220 24-463): as above

In the case of `CC[C@H](C)[C@H](NC(=O)[C@H](CC(C)C)NC(=O)[C@H](Cc1ccc(O)cc1)NC(=O)[C@H](CCC(=O)O)NC(=O)[C@@H](NC(=O)[C@H](Cc1ccccc1)NC(=O)[C@H](C)NC(=O)C(C)(C)NC(=O)[C@H](CCC(N)=O)NC(=O)[C@H](C)NC(=O)[C@H](CCCCNC(=O)COCCOCCNC(=O)COCCOCCNC(=O)CC[C@H](NC(=O)CCCCCCCCCCCCCCCCCCC(=O)O)C(=O)O)NC(=O)[C@H](CCCCN)NC(=O)[C@H](CC(=O)O)NC(=O)[C@H](CC(C)C)NC(=O)[C@](C)(CC(C)C)NC(=O)[C@@H](NC(=O)[C@H](CO)NC(=O)[C@H](Cc1ccc(O)cc1)NC(=O)[C@H](CC(=O)O)NC(=O)[C@H](CO)NC(=O)[C@@H](NC(=O)[C@](C)(Cc1ccccc1F)NC(=O)[C@@H](NC(=O)CNC(=O)[C@H](CCC(=O)O)NC(=O)C(C)(C)NC(=O)[C@H](N)Cc1ccc(O)cc1)[C@@H](C)O)[C@@H](C)O)[C@@H](C)CC)[C@@H](C)CC)C(=O)N[C@@H](CCC(=O)O)C(=O)NCC(=O)NCC(=O)N1CCC[C@H]1C(=O)N[C@@H](CO)C(=O)N[C@@H](CO)C(=O)NCC(=O)N[C@@H](C)C(=O)N1CCC[C@H]1C(=O)N1CCC[C@H]1C(=O)N1CCC[C@H]1C(=O)N[C@@H](CO)C(N)=O` [Example 336], the EC50 – broadly, the midpoint of the concentration-response curve – is 0.377 nM on human GLP-1R [1], 0.00778 µM at human GLP-1R [2], 0.0312 nM in assay [3] and 0.0874 nM in assay [5]. The Ki – broadly, the equilibrium dissociation constant of an inhibitor or competing ligand from its target – amounted to 0.0277 nM on human GIP receptor, 17.1 nM at human Gcg receptor and 2.44 nM on human GLP-1R [4]. In addition, the “hGLP1R B-Arrestin2 % Top” value on human GLP-1R [2] came out at 82.5%.

Consider `CC[C@H](C)[C@H](NC(=O)[C@H](CC(C)C)NC(=O)[C@H](Cc1ccc(O)cc1)NC(=O)[C@H](CCC(=O)O)NC(=O)[C@@H](NC(=O)[C@H](Cc1ccccc1)NC(=O)[C@H](C)NC(=O)C(C)(C)NC(=O)[C@H](CCC(N)=O)NC(=O)[C@H](C)NC(=O)[C@H](CCCCNC(=O)COCCOCCNC(=O)COCCOCCNC(=O)CC[C@H](NC(=O)CCCCCCCCCCCCCCCCCCC(=O)O)C(=O)O)NC(=O)[C@H](CCCCN)NC(=O)[C@H](CC(=O)O)NC(=O)[C@H](CC(C)C)NC(=O)[C@](C)(CC(C)C)NC(=O)[C@@H](NC(=O)[C@H](CO)NC(=O)[C@H](Cc1ccc(O)cc1)NC(=O)[C@H](CC(=O)O)NC(=O)[C@H](CO)NC(=O)[C@@H](NC(=O)[C@H](Cc1ccccc1)NC(=O)[C@@H](NC(=O)CNC(=O)[C@H](CCC(=O)O)NC(=O)C(C)(C)NC(=O)[C@@H](N)Cc1ccccc1)[C@@H](C)O)[C@@H](C)O)[C@@H](C)CC)[C@@H](C)CC)C(=O)N[C@@H](C)C(=O)NCC(=O)NCC(=O)N1CCC[C@H]1C(=O)N[C@@H](CO)C(=O)N[C@@H](CO)C(=O)NCC(=O)N[C@@H](C)C(=O)N1CCC[C@H]1C(=O)N1CCC[C@H]1C(=O)N1CCC[C@H]1C(=O)N[C@@H](CO)C(N)=O` [Example 337] (H-F[Aib]EGTFTSDYSI[αMeL]LDKK([AEEA-AEEA-γGlu-C20 diacid])AQ[Aib]AFIEYLIAGGPSSGAPPPS-NH2), for which the concentration giving a half-maximal response (EC50) on human GLP-1R [1] (setting [6]) came out at 0.322 nM; on human GLP-1R [2] (setting [8]), 0.0174 µM; in assay [3] (setting [9]) it was 0.0515 nM; in assay [5] (setting [12]), 0.173 nM. Moreover, the Ki came out at 0.0363 nM at human GIP receptor (setting [7]), 335 nM at human Gcg receptor (setting [10]) and 1.61 nM at human GLP-1R [4] (setting [11]). Also, at human GLP-1R [2], the “hGLP1R B-Arrestin2 % Top” value was determined as 34.1%.

On to `CC[C@H](C)[C@H](NC(=O)[C@H](CC(C)C)NC(=O)[C@H](Cc1ccc(O)cc1)NC(=O)[C@H](CCC(=O)O)NC(=O)[C@@H](NC(=O)[C@H](Cc1ccccc1)NC(=O)[C@H](CCC(=O)O)NC(=O)C(C)(C)NC(=O)[C@H](CCC(N)=O)NC(=O)[C@H](C)NC(=O)[C@H](CCCCNC(=O)COCCOCCNC(=O)CC[C@H](NC(=O)CCCCCCCCCCCCCCCCCCC(=O)O)C(=O)O)NC(=O)[C@H](CCCCN)NC(=O)[C@H](CC(=O)O)NC(=O)[C@H](CC(C)C)NC(=O)[C@](C)(CC(C)C)NC(=O)[C@@H](NC(=O)[C@H](CO)NC(=O)[C@H](Cc1ccc(O)cc1)NC(=O)[C@H](CC(=O)O)NC(=O)[C@H](CO)NC(=O)[C@@H](NC(=O)[C@H](Cc1ccccc1)NC(=O)[C@@H](NC(=O)CNC(=O)[C@H](CCC(=O)O)NC(=O)C(C)(C)NC(=O)[C@@H](N)Cc1ccc(O)cc1)[C@@H](C)O)[C@@H](C)O)[C@@H](C)CC)[C@@H](C)CC)C(=O)N[C@@H](C)C(=O)NCC(=O)NCC(=O)N1CCC[C@H]1C(=O)N[C@@H](CO)C(=O)N[C@@H](CO)C(=O)NCC(=O)N[C@@H](C)C(=O)N1CCC[C@H]1C(=O)N1CCC[C@H]1C(=O)N1CCC[C@H]1C(=O)N[C@@H](CO)C(N)=O` [Example 339] (H-Y[Aib]EGTFTSDYSI[αMeL]LDKK([AEEA-γGlu-C20 diacid])AQ[Aib]EFIEYLIAGGPSSGAPPPS-NH2), for which the EC50 was 0.326 nM at human GLP-1R [1] (setting [6]), 0.0107 µM on human GLP-1R [2] (setting [8]), 0.0219 nM in assay [3] (setting [9]) and 0.0986 nM in assay [5] (setting [12]). For the same molecule, the Ki on human GIP receptor (setting [7]) was determined as 0.0388 nM; at human Gcg receptor (setting [10]), 873 nM; at human GLP-1R [4] (setting [11]), 2.69 nM. Further, the “hGLP1R B-Arrestin2 % Top” value on human GLP-1R [2] is recorded as 44.0%.

Take `CC[C@H](C)[C@H](NC(=O)[C@H](CC(C)C)NC(=O)[C@H](Cc1ccc(O)cc1)NC(=O)[C@H](CCC(=O)O)NC(=O)[C@@H](NC(=O)[C@H](Cc1ccccc1)NC(=O)[C@H](C)NC(=O)C(C)(C)NC(=O)[C@H](CCC(N)=O)NC(=O)[C@H](C)NC(=O)[C@H](CCCCNC(=O)COCCOCCNC(=O)COCCOCCNC(=O)CC[C@H](NC(=O)CCCCCCCCCCCCCCCCCCC(=O)O)C(=O)O)NC(=O)[C@H](CCCCN)NC(=O)[C@H](CC(=O)O)NC(=O)[C@H](CC(C)C)NC(=O)[C@](C)(CC(C)C)NC(=O)[C@@H](NC(=O)[C@H](CO)NC(=O)[C@H](Cc1ccc(O)cc1)NC(=O)[C@H](CC(=O)O)NC(=O)[C@H](CO)NC(=O)[C@@H](NC(=O)[C@H](Cc1ccccc1)NC(=O)[C@@H](NC(=O)CNC(=O)[C@H](CCC(=O)O)NC(=O)C(C)(C)NC(=O)[C@H](N)Cc1ccc(O)cc1)[C@@H](C)O)[C@@H](C)O)[C@@H](C)CC)[C@@H](C)CC)C(=O)N[C@@H](C)C(=O)NCC(=O)NCC(=O)N1CCC[C@H]1C(=O)N[C@@H](CO)C(=O)N[C@@H](CO)C(=O)NCC(=O)N[C@@H](C)C(=O)N1CCC[C@H]1C(=O)N1CCC[C@H]1C(=O)N1CCC[C@H]1C(=O)N[C@@H](CO)C(N)=O` [Example 340] (H-[dY][Aib]EGTFTSDYSI[αMeL]LDKK([AEEA-AEEA-γGlu-C20 diacid])AQ[Aib]AFIEYLIAGGPSSGAPPPS-NH2): the EC50 was 0.45 nM at human GLP-1R [1] (setting [6]), 0.0107 µM at human GLP-1R [2] (setting [8]), 0.0823 nM in assay [3] (setting [9]) and 0.252 nM in assay [5] (setting [12]). For the same molecule, the figures for the Ki on human GIP receptor (setting [7]), on human Gcg receptor (setting [10]) and on human GLP-1R [4] (setting [11]) were 0.0507 nM, 250 nM and 2.08 nM, respectively. The “hGLP1R B-Arrestin2 % Top” value at human GLP-1R [2] came out at 20.1%.
